One test has as its system AsPC-1. In words: Cell growth inhibition assay (AsPC-1). In kind it is cell-based. Conditions: AsPC-1, 6 days incubation, CellTiter-Glo. How it is done: (§1) 4. Cell Growth Inhibition Assay
AsPC-1 cultured in RPMI-1640 medium (Gibco) containing 10% fetal bovine serum (Gibco). Cells in culture medium were plated in 96-well plates at a concentration of 1000 cells/well ([…]) and allowed to attach overnight.
(§2) The next day, compounds were diluted in culture medium and added to the plates. After 6 days incubation in a 37° C./5% CO2 cell incubator, the cell viability was detected by CellTiter-Glo® Luminescent Cell Viability Assay kit (Promega). Luminescent signals were read on Tecan Spark multimode microplate reader and analyzed using a 4-parameter logistic model to calculate IC50 values.
In general terms: Cellular ATP, detected with luciferase, serves as a proxy for viable cell number.

Test [1] concerns the target T1, GDP-loaded HIS-KRAS (G12D, aa 1-169) (Homo sapiens, UniProt P01116, G12D).
T1 construct: GDP-loaded HIS-KRAS (G12D, aa 1-169)
In words: SOS1 catalyzed nucleotide exchange assay. The class given is biochemical. Conditions: SOS1 ExD, TR-FRET, 4 hours at 25° C. The procedure: 1. SOS1 Catalyzed Nucleotide Exchange Assay
GDP-loaded HIS-KRAS (G12D, aa 1-169) was pre-incubated with a compound in the presence of 10 nM GDP in a 384-well plate (Greiner) for 15 min, then purified SOS1 ExD (Flag tag, aa 564-1049), BODIPY™ FL GTP (Invitrogen) and MAb (monoclonal antibody) Anti 6HIS-Tb cryptate Gold (Cisbio) were added to the assay wells (Final concentration: 1.5 nM GDP-loaded HIS-KRAS (G12D), 5 nM GDP, 0.5 μM SOS1 ExD, 80 nM BODIPY™ FL GTP, 52.5 ng/mL MAb Anti 6HIS-Tb cryptate Gold) and incubated for 4 hours at 25° C. Wells containing same percent of DMSO served as vehicle control, and wells without KRAS served as low control. TR-FRET signals were read on Tecan Spark multimode microplate reader. The parameters were F486: Excitation 340 nm, Emission 486 nm, Lag time 100 μs, Integration time 200 μs; F515: Excitation 340 nm, Emission 515 nm, Lag time 100 μs, Integration time 200 μs. TR-FRET ratios for each individual wells were calculated by equation: TR-FRET ratio=(Signal F515/Signal F486)*10000. The percent of activation of compounds treated wells were normalized between vehicle control and low control (% Activation=(TR-FRET ratioCompound treated−TR-FRET ratioLow control)/(TR-FRET ratioVehicle control−TR-FRET ratioLow control)*100%). Then the data were analyzed either by fitting a 4-parameter logistic model or by Excel to calculate IC50 values.
On the technique in general: TR-FRET usually uses a lanthanide donor and a delayed reading to cut background.

Test [2] has as its system AGS cells expressing KRAS G12D. In words: Phospho-ERK1/2(THR202/TYR204) HTRF assay. The class given is cell-based. The conditions noted are these: 2 hours incubation, read-out: AGS p-ERK IC50. The procedure: AGS cells expressing KRAS G12D were cultured in F12K medium (Gibco) containing 10% fetal bovine serum (Gibco). The AGS cells in culture medium were seeded in 96-well plates at a concentration of 40,000 cells/well and then put in a 37° C./5% CO2 cell incubator to incubate overnight. The next day, culture medium was removed and the compound diluted in assay medium (F12K, 0.1% FBS) was added in each well. After 2 hours incubation in a 37° C./5% CO2 cell incubator, the assay medium in 96-well plates was removed, then 50 μL of 1× blocking reagent-supplemented lysis buffer (Cisbio) was added and the plates were incubated at 25° C. for 45 min with shaking. 10 μL of cell lysates from the 96-well plates were transferred to a 384-well plate (Greiner) containing 2.5 μL/well HTRF® pre-mixed antibodies (Cisbio 64AERPEH). Incubate 4 hours at 25° C. and then read HTRF signals on Tecan Spark multimode microplate reader. The data were analyzed using a 4-parameter logistic model to calculate IC50 values.

The next test concerns AGS. The test is described as follows: Cell growth inhibition assay (AGS). In kind it is cell-based. The conditions noted are these: 6 days incubation, CellTiter-Glo. The procedure:
as §1
AGS cultured in F12K medium (Gibco) containing 10% fetal bovine serum (Gibco). Cells in culture medium were plated in 96-well plates at a concentration of 500 cells/well ([…]) and allowed to attach overnight.
as §2

The target of test [3] is T2, GppNp-loaded HIS-KRAS (G12D, aa 1-169) / cRAF RBD (Homo sapiens, UniProt P01116, G12D).
T2 construct: GppNp-loaded HIS-KRAS (G12D, aa 1-169)
T2 sequence (P01116 1-169 isoform P01116-2 G12D): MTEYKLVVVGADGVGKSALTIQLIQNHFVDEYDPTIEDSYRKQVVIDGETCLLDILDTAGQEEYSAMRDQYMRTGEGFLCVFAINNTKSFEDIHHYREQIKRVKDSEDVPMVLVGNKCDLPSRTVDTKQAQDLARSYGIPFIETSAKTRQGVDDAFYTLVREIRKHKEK
The test is described as follows: GTP-KRAS and cRAF interaction assay. In kind it is binding. The conditions noted are these: HTRF, 2 hours at 25° C. How it is done: 2. GTP-KRAS and cRAF Interaction Assay
GppNp-loaded HIS-KRAS (G12D, aa 1-169) was pre-incubated with a compound in the presence of 200 µM GTP in a 384-well plate (Greiner) for 15 min, then cRAF RBD (GST tag, aa 50-132, CreativeBioMart), MAb Anti GST-d2 (Cisbio) and MAb Anti 6HIS-Tb cryptate Gold (Cisbio) were added to the assay wells (Final concentration: 2.0 nM GppNp-loaded HIS-KRAS (G12D), 100 μM GTP, 35 nM cRAF RBD, 1 μg/mL MAb Anti GST-d2, 52.5 ng/mL MAb Anti 6HIS-Tb cryptate Gold) and incubated for 2 hours at 25° C. Wells containing same percent of DMSO served as vehicle control, and wells without KRAS served as low control. HTRF signals were read on Tecan Spark multimode microplate reader and HTRF ratios were calculated under manufacturer's instructions. The percent of activation of compounds treated wells were normalized between vehicle control and low control (% Activation=(HTRF ratioCompound treated−HTRF ratioLow control)/(HTRF ratioVehicle control−HTRF ratioLow control)*100). Then the data were analyzed either by fitting a 4-parameter logistic model or by Excel to calculate IC50 values.

Where two headings read alike, the source gives them in different places.

T1 sequence (P01116 1-169 isoform P01116-2 G12D): as above

On to `C#Cc1cccc2cc(O)cc(-c3c(CC)cc4c(N5CC6CCC(C5)N6)nc(OCC5(CN6CCOCC6)CC5)nc4c3F)c12` [Compound 49], for which the IC50 – broadly, the concentration at which inhibition is half-maximal – came out at 88 nM with AsPC-1 (Homo sapiens, ASPC1, 144 h); 3.51 nM in test [1]; 16.8 nM in test [2] (Homo sapiens); 10.7 nM in the test on AGS (Homo sapiens, 144 h); 26.3 nM in test [3].

For `Cc1ccc2cc(O)cc(-c3ccc4c(N5CC6CCC(C5)N6)nc(OCC5(CN6CCOCC6)CC5)nc4c3F)c2c1` [Compound 64], the half-inhibitory concentration (IC50) in the test on AsPC-1 came out at 178 nM; in test [1], 45.4 nM; in test [2] it was 61.8 nM; with AGS it was 73 nM; in test [3], 329 nM.

Take `C#Cc1cccc2cc(O)cc(-c3cc4nc(OC[C@@]56CCCN5C[C@H](F)C6)nc(N5CC6CCC(C5)N6)c4cc3Cl)c12` [Compound 97]: the IC50 in the test on AsPC-1 (Homo sapiens, ASPC1, 144 h) is 127 nM; in test [1], 7.64 nM; in test [2] (Homo sapiens), 5.22 nM; with AGS (Homo sapiens, 144 h), 45.3 nM; in test [3], 44.6 nM.

Turning to `C#Cc1cccc2cc(O)cc(-c3ccc4c(N5CC6CCC(C5)N6)nc(OCC5(CN6CCOC[C@H]6C)CC5)nc4c3F)c12` [Compound 115], the IC50 with AsPC-1 (Homo sapiens, ASPC1, 144 h) is 7.52 nM; in test [1], 28.2 nM; in test [2] (Homo sapiens) it was 4.23 nM; in the test on AGS (Homo sapiens, 144 h), 4.23 nM; in test [3], 121 nM.

Take `C#Cc1c(F)ccc2cc(O)cc(-c3ccc4c(N5CC6CCC(C5)N6)nc(OCC5(CN6CCCC(F)C6)CC5)nc4c3F)c12` (stereo not drawn) [Compound 74]: the IC50 is 21.3 nM with AsPC-1 (Homo sapiens, ASPC1, 144 h); 10 nM in test [1]; 12.4 nM in test [2] (Homo sapiens); 4.41 nM in the test with AGS (Homo sapiens, 144 h); 39.8 nM in test [3].

For the compound `C#Cc1cccc2cc(O)cc(-c3c(CO)cc4c(N5CC6CCC(C5)N6)nc(OCC5(CN6CCOCC6)CC5)nc4c3F)c12` [Compound 102], the IC50 in the test on AsPC-1 (Homo sapiens, ASPC1, 144 h) turned out to be 1940 nM; in test [1] it was 6.42 nM; in test [2] (Homo sapiens), 40.4 nM; with AGS (Homo sapiens, 144 h) it was 82.5 nM; in test [3], 74.2 nM.

For the compound `C#Cc1cccc2cc(O)cc(-c3ccc4c(N5CC6CCC(C5)N6)nc(OCC5(CN6CCOCC6)CC5)nc4c3F)c12` [Compound 34], the IC50 was found to be 19.1 nM with AsPC-1 (Homo sapiens, ASPC1, 144 h); 8.73 nM in test [1]; 2.16 nM in test [2] (Homo sapiens); 11.1 nM in the test on AGS (Homo sapiens, 144 h); 12.6 nM in test [3].

For the compound `C#Cc1cccc2cc(O)cc(-c3cc4nc(OCC5(CN6CCOCC6)CC5)nc(N5CC6CCC(C5)N6)c4cc3Cl)c12` [Compound 57], the IC50 in the test on AsPC-1 (Homo sapiens, ASPC1, 144 h) was determined as 399 nM; in test [1] it was 45.8 nM; in test [2] (Homo sapiens), 95.8 nM; in the test with AGS (Homo sapiens, 144 h) it was 124 nM; in test [3], 350 nM.

In the case of `C#Cc1cccc2cc(O)cc(-c3ccc4c(N5CC6CCC(C5)N6)nc(OCC5(CN6CCCCC6)CC5)nc4c3F)c12` [Compound 131], the IC50 came out at 55 nM in the test on AsPC-1 (Homo sapiens, ASPC1, 144 h); 9.1 nM in test [1]; 9.86 nM in test [2] (Homo sapiens); 13.4 nM in the test on AGS (Homo sapiens, 144 h); 90.4 nM in test [3].

With `C#Cc1cccc2cc(O)cc(-c3cc4nc(OC[C@@]56CCCN5C[C@H](F)C6)nc(N5CC6CCC(C5)N6)c4cc3C)c12` [Compound 75], the IC50 in the test on AsPC-1 (Homo sapiens, ASPC1, 144 h) came out at 62.3 nM; in test [1] it was 9.26 nM; in test [2] (Homo sapiens), 14.6 nM; in the test on AGS (Homo sapiens, 144 h), 5.64 nM; in test [3], 84.2 nM.

In the case of `C#Cc1cccc2cc(O)cc(-c3ccc4c(N5CC6CCC(C5)N6)nc(OCC5(CN6CCC[C@H](F)C6)CC5)nc4c3F)c12` [Compound 113], the IC50 with AsPC-1 is 18.4 nM; in test [1], 12.6 nM; in test [2] it was 15.9 nM; with AGS, 4.35 nM; in test [3], 124 nM.

As for `C#Cc1cccc2cc(O)cc(-c3c(F)cc4c(N5CC6CCC(C5)N6)nc(OCC5(CN6CCS(=O)(=O)CC6)CC5)nc4c3F)c12` [Compound 83], the IC50 came to 5090 nM in the test on AsPC-1 (Homo sapiens, ASPC1, 144 h); 18 nM in test [1]; 131 nM in test [2] (Homo sapiens); 273 nM with AGS (Homo sapiens, 144 h); 3150 nM in test [3].

For the compound `C#Cc1cccc2cc(O)cc(-c3ccc4c(N5CC6CCC(C5)N6)nc(OCC5(CN(C)CCO)CC5)nc4c3F)c12` [Compound 86], the 50% inhibitory concentration (IC50) came to 528 nM in the test with AsPC-1 (Homo sapiens, ASPC1, 144 h); 20.9 nM in test [1]; 7.4 nM in test [2] (Homo sapiens); 60.3 nM in the test on AGS (Homo sapiens, 144 h); 97 nM in test [3].

As to `C#Cc1cccc2cc(O)cc(-c3c(C4CC4)cc4c(N5CC6CCC(C5)N6)nc(OCC5(CN6CCOCC6)CC5)nc4c3F)c12` (single isomer, unassigned) [Compound 38B], the IC50 in the test with AsPC-1 is 158 nM; in test [1], 0.727 nM; in test [2] it was 12.4 nM; in the test with AGS it was 10.5 nM; in test [3] it was 13.2 nM.

As to `C#Cc1cccc2cc(O)cc(-c3c(F)cc4c(N5CC6CCC(C5)N6)nc(OCC5(CN6CCOCC6)CC5)nc4c3F)c12` [Compound 41], the IC50 in the test on AsPC-1 (Homo sapiens, ASPC1, 144 h) is 18.7 nM; in test [1], 9.17 nM; in test [2] (Homo sapiens), 2.63 nM; with AGS (Homo sapiens, 144 h), 6.96 nM; in test [3] it was 211 nM.

In the case of `C#Cc1cccc2cc(O)cc(-c3cc4nc(OCC5(CN6CCOCC6)CC5)nc(N5CC6CCC(C5)N6)c4cc3C)c12` [Compound 118], the IC50 in the test with AsPC-1 (Homo sapiens, ASPC1, 144 h) was found to be 145 nM; in test [1], 19.2 nM; in test [2] (Homo sapiens), 64 nM; in the test on AGS (Homo sapiens, 144 h) it was 31.1 nM; in test [3], 165 nM.

Take `C#Cc1cccc2cc(O)cc(-c3cc4nc(OCC5(CN6CCOCC6)CC5)nc(N5CC6CCC(C5)N6)c4cc3F)c12` [Compound 108]: the IC50 in the test on AsPC-1 (Homo sapiens, ASPC1, 144 h) came out at 63.6 nM; in test [1], 28.1 nM; in test [2] (Homo sapiens), 19 nM; with AGS (Homo sapiens, 144 h) it was 21.9 nM; in test [3], 298 nM.

On to `N#Cc1c(N)sc2c(F)ccc(-c3ccc4c(N5CC6CCC(C5)N6)nc(OCC5(CN6CCOCC6)CC5)nc4c3F)c12` [Compound 95], for which the IC50 in the test on AsPC-1 (Homo sapiens, ASPC1, 144 h) was 572 nM; in test [1] it was 3.28 nM; in test [2] (Homo sapiens), over 200 nM; in the test on AGS (Homo sapiens, 144 h), 52.7 nM; in test [3], 388 nM.
